Assay results reported in patent US12162840B2, “Herbicidal compositions” (SYNGENTA PARTICIPATIONS AG, priority 2018, dated 2024).

Test system: cool season plant species
Test: B2 Post-emergence efficacy Test 2, cool season plant species
Type: in vivo
Details: 15 days after application, 0=no damage, 100=total kill
Experimental: Seeds of a variety of test species (see Table B1) were sown in standard soil in pots. After cultivation for 12 days (post-emergence) under controlled conditions in a glasshouse (at 24/18° C. or 20/16° C., at day/night; 16 hours light; 65% humidity), the plants were sprayed with an aqueous spray solution derived from the formulation of the technical active ingredient dissolved in IF50 (see Table B2 for composition) and adjuvant (Genapol XO80) was added to the spray solution at a rate of 0.2% v/v. [table] [table] After application, the test plants were grown in a glasshouse under controlled conditions (as above) and watered twice daily. Herbicidal activity was evaluated 15 days after application on a 0-100 scale. The results, where 0=no damage to test plant and 100=total kill of test plant are shown below in Tables 6 to 9.

Cc1nn(C)c(=O)c(-c2c(F)ccc(Cl)c2CCc2ccc(C#N)cc2)c1O [Compound 1.024]
50: Herbicidal activity (0-100 scale) ALOMY (60 g/Ha)
30: Herbicidal activity (0-100 scale) ALOMY (30 g/Ha) | Herbicidal activity (0-100 scale) AVEFA (60 g/Ha) | Herbicidal activity (0-100 scale) POAAN (60 g/Ha) | Herbicidal activity (0-100 scale) TRZAW (125 g/Ha)
90: Herbicidal activity (0-100 scale) BRSNN (30 g/Ha) | Herbicidal activity (0-100 scale) BRSNN (60 g/Ha) | Herbicidal activity (0-100 scale) BRSNN (125 g/Ha) | Herbicidal activity (0-100 scale) BRSNN (250 g/Ha) | Herbicidal activity (0-100 scale) BRSNN (500 g/Ha) | Herbicidal activity (0-100 scale) CHEAL (30 g/Ha) | Herbicidal activity (0-100 scale) CHEAL (60 g/Ha) | Herbicidal activity (0-100 scale) CHEAL (125 g/Ha) | Herbicidal activity (0-100 scale) CHEAL (250 g/Ha) | Herbicidal activity (0-100 scale) GALAP (250 g/Ha) | Herbicidal activity (0-100 scale) GALAP (500 g/Ha) | Herbicidal activity (0-100 scale) LOLPE (125 g/Ha) | Herbicidal activity (0-100 scale) LOLPE (250 g/Ha) | Herbicidal activity (0-100 scale) LOLPE (500 g/Ha) | Herbicidal activity (0-100 scale) POAAN (500 g/Ha) | Herbicidal activity (0-100 scale) POLCO (60 g/Ha) | Herbicidal activity (0-100 scale) POLCO (125 g/Ha) | Herbicidal activity (0-100 scale) POLCO (250 g/Ha) | Herbicidal activity (0-100 scale) SINAR (250 g/Ha) | Herbicidal activity (0-100 scale) STEME (15 g/Ha) | Herbicidal activity (0-100 scale) STEME (30 g/Ha) | Herbicidal activity (0-100 scale) STEME (60 g/Ha) | Herbicidal activity (0-100 scale) STEME (125 g/Ha) | Herbicidal activity (0-100 scale) STEME (250 g/Ha) | Herbicidal activity (0-100 scale) VERPE (60 g/Ha)
40: Herbicidal activity (0-100 scale) BROTE (250 g/Ha)
70: Herbicidal activity (0-100 scale) ALOMY (125 g/Ha) | Herbicidal activity (0-100 scale) ALOMY (250 g/Ha) | Herbicidal activity (0-100 scale) ALOMY (500 g/Ha) | Herbicidal activity (0-100 scale) AVEFA (250 g/Ha) | Herbicidal activity (0-100 scale) BEAVA (15 g/Ha) | Herbicidal activity (0-100 scale) BEAVA (30 g/Ha) | Herbicidal activity (0-100 scale) BROTE (500 g/Ha) | Herbicidal activity (0-100 scale) LOLPE (30 g/Ha) | Herbicidal activity (0-100 scale) LOLPE (60 g/Ha) | Herbicidal activity (0-100 scale) TRZAW (500 g/Ha)
80: Herbicidal activity (0-100 scale) AVEFA (500 g/Ha) | Herbicidal activity (0-100 scale) BEAVA (60 g/Ha) | Herbicidal activity (0-100 scale) BEAVA (125 g/Ha) | Herbicidal activity (0-100 scale) BEAVA (250 g/Ha) | Herbicidal activity (0-100 scale) BRSNN (15 g/Ha) | Herbicidal activity (0-100 scale) POAAN (125 g/Ha) | Herbicidal activity (0-100 scale) POAAN (250 g/Ha) | Herbicidal activity (0-100 scale) POLCO (15 g/Ha) | Herbicidal activity (0-100 scale) SINAR (15 g/Ha) | Herbicidal activity (0-100 scale) SINAR (30 g/Ha) | Herbicidal activity (0-100 scale) SINAR (60 g/Ha) | Herbicidal activity (0-100 scale) VERPE (15 g/Ha) | Herbicidal activity (0-100 scale) VERPE (30 g/Ha) | Herbicidal activity (0-100 scale) VERPE (125 g/Ha)
20: Herbicidal activity (0-100 scale) AVEFA (30 g/Ha) | Herbicidal activity (0-100 scale) BROTE (125 g/Ha) | Herbicidal activity (0-100 scale) GALAP (30 g/Ha) | Herbicidal activity (0-100 scale) GALAP (60 g/Ha) | Herbicidal activity (0-100 scale) HORVW (500 g/Ha) | Herbicidal activity (0-100 scale) KCHSC (500 g/Ha) | Herbicidal activity (0-100 scale) POAAN (30 g/Ha) | Herbicidal activity (0-100 scale) TRZAW (60 g/Ha)
10: Herbicidal activity (0-100 scale) ALOMY (15 g/Ha) | Herbicidal activity (0-100 scale) AVEFA (15 g/Ha) | Herbicidal activity (0-100 scale) BROTE (60 g/Ha) | Herbicidal activity (0-100 scale) HORVW (30 g/Ha) | Herbicidal activity (0-100 scale) HORVW (60 g/Ha) | Herbicidal activity (0-100 scale) HORVW (125 g/Ha) | Herbicidal activity (0-100 scale) HORVW (250 g/Ha) | Herbicidal activity (0-100 scale) KCHSC (125 g/Ha) | Herbicidal activity (0-100 scale) KCHSC (250 g/Ha) | Herbicidal activity (0-100 scale) LOLPE (15 g/Ha) | Herbicidal activity (0-100 scale) POAAN (15 g/Ha)
0: Herbicidal activity (0-100 scale) BROTE (15 g/Ha) | Herbicidal activity (0-100 scale) BROTE (30 g/Ha) | Herbicidal activity (0-100 scale) HORVW (15 g/Ha) | Herbicidal activity (0-100 scale) KCHSC (15 g/Ha) | Herbicidal activity (0-100 scale) KCHSC (30 g/Ha) | Herbicidal activity (0-100 scale) KCHSC (60 g/Ha) | Herbicidal activity (0-100 scale) TRZAW (15 g/Ha) | Herbicidal activity (0-100 scale) TRZAW (30 g/Ha)
100: Herbicidal activity (0-100 scale) BEAVA (500 g/Ha) | Herbicidal activity (0-100 scale) CHEAL (500 g/Ha) | Herbicidal activity (0-100 scale) POLCO (500 g/Ha) | Herbicidal activity (0-100 scale) SINAR (500 g/Ha) | Herbicidal activity (0-100 scale) STEME (500 g/Ha) | Herbicidal activity (0-100 scale) VERPE (250 g/Ha) | Herbicidal activity (0-100 scale) VERPE (500 g/Ha)
60: Herbicidal activity (0-100 scale) AVEFA (125 g/Ha) | Herbicidal activity (0-100 scale) CHEAL (15 g/Ha) | Herbicidal activity (0-100 scale) GALAP (125 g/Ha) | Herbicidal activity (0-100 scale) TRZAW (250 g/Ha)
